Test results from PubChem BioAssay AID652285 (Sanford-Burnham Center for Chemical Genomics, 2013).
pIC50: −log10 of the molar value. Where “and” joins values, the source holds several entries; their conditions need not be identical. Equal values may be shown once. Calls of active or inactive are those of the source.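 Rule for the calls: active = IC50 at or below 60 µM; inactive = the rest.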

target: COP9 signalosome complex subunit 5 (Homo sapiens) (UniProt Q92905); assay: Csn5 deneddylase inhibition by analogues, SAR follow-up, selectivity assay for RPN11 inhibitor project, biochemical, fluorescence polarization, Cul-Nedd8-OG substrate (AID 652285); conditions: Csn5 deneddylation of SCF-Nedd8-OG
Sequence (Q92905 whole entry, looked up, one chain of several): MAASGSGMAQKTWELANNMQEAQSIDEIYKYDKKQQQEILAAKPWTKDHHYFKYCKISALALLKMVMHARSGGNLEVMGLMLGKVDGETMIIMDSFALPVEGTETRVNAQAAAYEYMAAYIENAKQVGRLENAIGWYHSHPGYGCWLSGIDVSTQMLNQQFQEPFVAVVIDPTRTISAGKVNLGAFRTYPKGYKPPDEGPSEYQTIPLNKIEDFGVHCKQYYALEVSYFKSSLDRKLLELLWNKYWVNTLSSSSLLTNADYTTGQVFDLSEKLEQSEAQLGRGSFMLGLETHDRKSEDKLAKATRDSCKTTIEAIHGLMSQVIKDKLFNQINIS

Q: `CCOc1ccccc1C(=O)Sc1cccc2cccnc12` was tested. Which pIC50 did it give?
A: 5.03 and 4.46

Q: With `COc1ccccc1C(=O)Sc1cccc2cccnc12` as the compound, how does the pIC50 read?
A: 4.85 and 5.08

Q: `O=C(Sc1cccc2cccnc12)c1cccc(Cl)c1` was tested. Which pIC50 did it give?
A: 5.72

Q: `N#Cc1ccc(C(=O)Sc2cccc3cccnc23)cc1` was tested. Which IC50 did it give?
A: > 95 µM (inactive)

Q: `O=C(Sc1cccc2cccnc12)c1c(Cl)cccc1Cl` was tested. Which pIC50 did it give?
A: 5.40

Q: For `N#Cc1cccc(C(=O)Sc2cccc3cccnc23)c1`, which IC50 is on record?
A: inactive

Q: With `COc1ccc(C(=O)Sc2cccc3cccnc23)cc1` as the compound, how does the pIC50 read?
A: 5.02

Q: Which IC50 does the source give for `O=C(Sc1cccc2cccnc12)c1cccc(C(F)(F)F)c1` here?
A: > 95 µM (inactive)

Q: How did the pIC50 turn out when `O=C(O)[C@@H]1CCCN1C(=O)c1cnc2c(SSc3cccc4cc(C(=O)N5CCC[C@H]5C(=O)O)cnc34)cccc2c1` was run?
A: 5.27

Q: `COC(=O)[C@@H](NC(=O)c1cnc2c(SSc3cccc4cc(C(=O)N[C@H](C(=O)OC)C(C)C)cnc34)cccc2c1)C(C)C` was tested. Which pIC50 did it give?
A: 5.12

Q: With `Cc1ccc(C(=O)Sc2cccc3cccnc23)cc1` as the compound, how does the IC50 read?
A: > 95 µM (inactive)

Q: With `O=C(Sc1cccc2cccnc12)c1ccc2c(c1)OCO2` as the compound, how does the pIC50 read?
A: 4.74

Q: `COC(=O)[C@H](C)NC(=O)c1ccnc2c(SSc3cccc4c(C(=O)N[C@@H](C)C(=O)OC)ccnc34)cccc12` was tested. Which pIC50 did it give?
A: 4.77

Q: How did the pIC50 turn out when `COC(=O)[C@H](CC(C)C)NC(=O)c1cnc2c(SSc3cccc4cc(C(=O)N[C@@H](CC(C)C)C(=O)OC)cnc34)cccc2c1` was run?
A: 4.90

Q: `O=C(Sc1cccc2cccnc12)c1ccc(C(F)(F)F)cc1` was tested. Which pIC50 did it give?
A: 5.20

Q: With `O=C(Sc1cccc2cccnc12)c1ccc(F)c(F)c1` as the compound, how does the pIC50 read?
A: 5.27

Q: How did the pIC50 turn out when `C[C@@H](C(=O)O)N(C)C(=O)c1cnc2c(SSc3cccc4cc(C(=O)N(C)[C@@H](C)C(=O)O)cnc34)cccc2c1` was run?
A: 4.78

Q: With `O=C(Sc1cccc2cccnc12)c1ccccc1Cl` as the compound, how does the pIC50 read?
A: 4.85

Q: `O=C(Sc1cccc2cccnc12)c1ccccc1[N+](=O)[O-]` was tested. Which pIC50 did it give?
A: 5.08

Q: With `O=C(Sc1cccc2cccnc12)c1ccc(F)cc1F` as the compound, how does the IC50 read?
A: inactive

Q: With `O=C(Sc1cccc2cccnc12)c1ccccc1I` as the compound, how does the pIC50 read?
A: 4.95

Q: With `COC(=O)[C@H](C)N(C)C(=O)c1cnc2c(SSc3cccc4cc(C(=O)N(C)[C@@H](C)C(=O)OC)cnc34)cccc2c1` as the compound, how does the pIC50 read?
A: 5.06

Q: With `O=C(Sc1cccc2cccnc12)c1cccc2ccccc12` as the compound, how does the pIC50 read?
A: 5.05

Q: `COc1ccc(C(=O)Sc2cccc3cccnc23)cc1F` was tested. Which pIC50 did it give?
A: 5.19

Q: `Cc1ccccc1C(=O)Sc1cccc2cccnc12` was tested. Which pIC50 did it give?
A: 4.68

Q: With `COC(=O)[C@H](CO)NC(=O)c1cnc2c(SSc3cccc4cc(C(=O)N[C@@H](CO)C(=O)OC)cnc34)cccc2c1` as the compound, how does the pIC50 read?
A: 4.37

Q: With `COc1ccc(C(=O)Sc2cccc3cccnc23)cc1OC` as the compound, how does the pIC50 read?
A: 5.06

Q: `O=C(Sc1cccc2cccnc12)c1ccc([N+](=O)[O-])cc1` was tested. Which pIC50 did it give?
A: 4.69

Q: `O=C(Sc1cccc2cccnc12)c1ccccc1OC(F)(F)F` was tested. Which pIC50 did it give?
A: 5.02

Q: How did the pIC50 turn out when `COC(=O)[C@H](C)NC(=O)c1cnc2c(SSc3cccc4cc(C(=O)N[C@@H](C)C(=O)OC)cnc34)cccc2c1` was run?
A: 4.81

Q: `O=C(Sc1cccc2cccnc12)c1ccc(F)cc1` was tested. Which pIC50 did it give?
A: 5.37

Q: How did the pIC50 turn out when `CC(C)(C)OC(=O)CCNC(=O)c1cnc2c(SSc3cccc4cc(C(=O)NCCC(=O)OC(C)(C)C)cnc34)cccc2c1` was run?
A: 4.46

Q: How did the pIC50 turn out when `O=C(Sc1cccc2cccnc12)c1ccccc1Br` was run?
A: 5.26

Q: `O=C(Sc1cccc2cccnc12)c1ccccc1` was tested. Which pIC50 did it give?
A: 5.32

Q: How did the IC50 turn out when `O=C(Sc1cccc2cccnc12)c1ccccc1F` was run?
A: > 95 µM (inactive)

Q: How did the pIC50 turn out when `CCCc1ccc(C(=O)Sc2cccc3cccnc23)cc1` was run?
A: 4.97

Q: `CC(C)C[C@H](NC(=O)c1cnc2c(SSc3cccc4cc(C(=O)N[C@@H](CC(C)C)C(=O)O)cnc34)cccc2c1)C(=O)O` was tested. Which pIC50 did it give?
A: 5.03

Q: `CC[C@@H](C)[C@H](NC(=O)c1cnc2c(SSc3cccc4cc(C(=O)N[C@H](C(=O)O)[C@H](C)CC)cnc34)cccc2c1)C(=O)O` was tested. Which pIC50 did it give?
A: 5.24
